16 compounds from ChEMBL document CHEMBL3797201, “Synthesis of N-1', N-3'-disubstituted spirohydantoins and their anticonvulsant activities in pilocarpine model of temporal lobe epilepsy” (Bioorg Med Chem Lett, 2016) can be followed below.

The source made the active and inactive calls. The rule behind the calls is not given here.

For data set [1], the system named is Rattus norvegicus. Description: Toxicity in pilocarpine-induced status epilepticus Sprague-Dawley rat model assessed as sedation at 100 mg/kg, ip administered 2 hrs prior to pilocarpine challenge. The following applies: in vivo. The data set is classed as organism-based.
Data set [2] deals with Rattus norvegicus. In words: Toxicity in pilocarpine-induced status epilepticus Sprague-Dawley rat model assessed as loss of righting reflex at 100 mg/kg, ip administered 2 hrs prior to pilocarpine challenge measured within 10 mins and upto 4 hrs. In kind it is organism-based. The conditions noted are these: in vivo.
Data set [3] has as its system Rattus norvegicus. In words: Anticonvulsant activity in pilocarpine-induced status epilepticus Sprague-Dawley rat model assessed as motor seizure onset time at 100 mg/kg, ip administered 2 hrs prior to pilocarpine challenge (reference value: 6 mins). The data set is classed as functional.
The subject of data set [4] is Rattus norvegicus. In words: Anticonvulsant activity in pilocarpine-induced status epilepticus Sprague-Dawley rat model assessed as delay in motor seizure onset time at 100 mg/kg, ip administered 2 hrs prior to pilocarpine challenge. In kind it is functional, organism-based.
Data set [5] concerns Rattus norvegicus. Description: Anticonvulsant activity in pilocarpine-induced status epilepticus Sprague-Dawley rat model at 100 mg/kg, ip administered 2 hrs prior to pilocarpine challenge. In kind it is functional, organism-based.
For data set [6], the system named is Rattus norvegicus. Description: Anticonvulsant activity in pilocarpine-induced status epilepticus Sprague-Dawley rat model assessed as recovered from seizure within 90 to 120 mins at 100 mg/kg, ip administered 2 hrs prior to pilocarpine challenge. In kind it is functional, organism-based.
In data set [7] the test system is Rattus norvegicus. In words: Anticonvulsant activity in pilocarpine-induced status epilepticus Sprague-Dawley rat model assessed as decrease in progression of motor seizure at 100 mg/kg, ip administered 2 hrs prior to pilocarpine challenge. In kind it is functional, organism-based.
The subject of data set [8] is Rattus norvegicus. Description: Anticonvulsant activity in pilocarpine-induced status epilepticus Sprague-Dawley rat model assessed as recovered from pre-stage of motor seizue within 30 mins at 100 mg/kg, ip administered 2 hrs prior to pilocarpine challenge. The data set is classed as functional, organism-based.
Data set [9] has as its system Rattus norvegicus. In words: Anticonvulsant activity in pilocarpine-induced status epilepticus Sprague-Dawley rat model assessed as survival rate at 100 mg/kg, ip administered 2 hrs prior to pilocarpine challenge (reference value: 53%). In kind it is functional.

Regarding `O=C1OC2(C(=O)N(c3ccccc3)C(=O)N2c2ccccc2)c2ccccc21` (racemic), the Activity result in data set [1] and in data set [2] was “Toxic” throughout.

As for `CCCN1C(=O)N(c2ccccc2)C(=O)C12OC(=O)c1ccccc12` (racemic), the Activity entry in data set [1] and in data set [2] was “Toxic” in each case. For `O=C1OC2(C(=O)N(c3ccc([N+](=O)[O-])cc3)C(=O)N2c2ccccc2)c2ccccc21` (racemic), the Time in [3] was 104 min. Turning to `O=C1OC2(C(=O)N(c3ccccc3)C(=O)N2C2CC2)c2ccccc21` (racemic), the Activity result in [1] and in [2] was “Toxic” in each case. For the compound `CCCN1C(=O)N(c2ccc(CC)cc2)C(=O)C12OC(=O)c1ccccc12` (racemic), the outcome in [4] was Active. Turning to `CCCN1C(=O)N(c2ccc(Cl)cc2)C(=O)C12OC(=O)c1ccccc12` (racemic), the result in data set [5] was Active. Take `CCCN1C(=O)N(c2ccc([N+](=O)[O-])cc2)C(=O)C12OC(=O)c1ccccc12` (racemic): the outcome in data set [5], in data set [4] and in [6] was Active. `CCCN1C(=O)N(c2ccccc2CC)C(=O)C12OC(=O)c1ccccc12` (racemic): the result in [5] was Active.

Turning to `CCN1C(=O)N(c2ccc(OC)cc2OC)C(=O)C12OC(=O)c1ccccc12` (racemic), the result in data set [5], in [4], in [6], in data set [7] and in data set [8] was Active. On to `CCN1C(=O)N(c2ccc([N+](=O)[O-])cc2)C(=O)C12OC(=O)c1ccccc12` (racemic), for which the result in [5] and in [6] was Active. For `CCc1ccc(N2C(=O)N(C3CC3)C3(OC(=O)c4ccccc43)C2=O)cc1` (racemic), the result in data set [4] was Active. As for `CCc1cccc(CC)c1N1C(=O)N(CC)C2(OC(=O)c3ccccc32)C1=O` (racemic), in [5], the result was Active. On to `O=C1OC2(C(=O)N(c3ccc(Cl)cc3)C(=O)N2C2CC2)c2ccccc21` (racemic), for which the result in data set [5] was Active. Consider `O=C1OC2(C(=O)N(c3ccc(Cl)cc3)C(=O)N2c2ccccc2)c2ccccc21` (racemic), for which, in [4], the outcome was Active. On to `O=C1OC2(C(=O)N(c3ccc([N+](=O)[O-])cc3)C(=O)N2C2CC2)c2ccccc21` (racemic), for which the result in [5] and in [6] was Active.

As to `O=C1NC(=O)C(c2ccccc2)(c2ccccc2)N1` [PHENYTOIN], the Time in data set [3] is 12 min. Besides, the survival at 100 mg/kg in data set [9] stood at 67%.
